The numbers were not newly measured in patent US20100120727A1, “Eflornithine Prodrugs, Conjugates and Salts, and Methods of Use Thereof” (Kyphia Pharmaceuticals, Inc., priority 2008, published 2010), which cites them from elsewhere.

Test in data set [1]: not given
This is another data set of the same source.

The subject of the next data set is tumor putrescine levels. To be noted: DFMO infusion.
Another data set has as its system MCA sarcoma. To be noted: in vivo.
Test in data set [2]: not given
The source holds these as a separate data set.

Where two headings read alike, the source gives them in different places.

Turning to `CC1=C(CC(=O)O)c2cc(F)ccc2/C1=C\c1ccc([S+](C)[O-])cc1` (stereo not shown) [Sulindac, (Z)-5-Fluoro-2-methyl-1-((4 (methylsulfinyl)phenyl)methylene)1H-indene-3-acetic acid], the “time to peak plasma levels” value is 3 to 4 h (administered with food) and “about 2 hours” (fasting patients). Further, the “fraction of the drug absorbed” value (after oral administration) is recorded as “about 90%”. Also, the “mild gastrointestinal effects, share of patients” value in data set [1] (abdominal pain and nausea most frequent) is about 20%. Moreover, the “skin rash and pruritus, share of patients” value in data set [1] (human, in vivo) is recorded as 5%.
As to `CSc1ccc(/C=C2/C(C)=C(CC(=O)O)c3cc(F)ccc32)cc1` [sulfide metabolite], the mean half-life (in vivo) is 16.4 h.
Consider `NCCCC(N)(C(=O)O)C(F)F` (racemic) [DFMO, 2-(Difluoromethyl)-DL-ornithine], for which the “decrease in tumor putrescine levels” value in the data set with tumor putrescine levels is reported as 90%. The “tumor growth rate and regression” value in the data set with MCA sarcoma is recorded as “reduces the growth rate of an MCA sarcoma but does not produce tumor regression”.
In the case of `CC1=C(CC(=O)O)c2cc(F)ccc2/C1=C\c1ccc(S(C)(=O)=O)cc1` [Sulindac sulfone], the COX-inhibitory activity entry in the data set with COX is “lacks COX-inhibitory activity”.
As for `CC(=O)Oc1ccccc1C(=O)O` [Aspirin, acetylsalicylic acid], in data set [2], the solubility in water entry was “very low solubility in water”.
